The target of data set [1] is T1, Human Serum Albumin (HSA) (Homo sapiens, UniProt P02768). Description: K-37 fluorescence bound to HSA with and without octanoate (Example 4). The class given is binding. As for the experimental part:
(§1) The dye K-37 was added at a concentration of 0.5 mM to LDL at a total lipid concentration of 5 mM, in the presence and absence of 50 mg/ml HSA. Measurements were made with and without the addition of 0.1 M sodium octanoate, which acted as a ligand binding inhibitor.

Data set [2] concerns the target T1, Human Serum Albumin (HSA). Description: Nile Red fluorescence bound to HSA with and without octanoate (Example 5). The format is binding. As for the experimental part:
as §1
Following the findings described in Example 4, concerning the addition of octanoate to block the hydrophobic binding sites of HSA, the inventors then observed that Nile Red also binds to HSA and fluoresces. This additional fluorescence of Nile Red when bound to HSA also causes a substantial background signal, which distorts and thereby causes significant errors in the measurement of HDL. They therefore decided to block the hydrophobic binding sites in HSA with the same ligand binding inhibitor as for K-37 blocking, i.e. sodium octanoate. The experiments conducted with Nile Red and HSA, were based on those discussed in Example 4, and all using 0.5 mM Nile Red.

The target in data set [3] is drug binding domain of HSA (Homo sapiens, UniProt P02768). Description: Blocking the drug binding domain of HSA in the HDL/Nile red assay. An excerpt: This led the inventors to realise that the HDL/Nile red assay may be improved further by using an additional blocker. They tried agents that block the drug binding domain of HSA. […] The benzoic acid has the added bonus of quenching the Nile Red residual fluorescence in solution by about 20%.
Sequence of drug binding domain of HSA (P02768 25-609): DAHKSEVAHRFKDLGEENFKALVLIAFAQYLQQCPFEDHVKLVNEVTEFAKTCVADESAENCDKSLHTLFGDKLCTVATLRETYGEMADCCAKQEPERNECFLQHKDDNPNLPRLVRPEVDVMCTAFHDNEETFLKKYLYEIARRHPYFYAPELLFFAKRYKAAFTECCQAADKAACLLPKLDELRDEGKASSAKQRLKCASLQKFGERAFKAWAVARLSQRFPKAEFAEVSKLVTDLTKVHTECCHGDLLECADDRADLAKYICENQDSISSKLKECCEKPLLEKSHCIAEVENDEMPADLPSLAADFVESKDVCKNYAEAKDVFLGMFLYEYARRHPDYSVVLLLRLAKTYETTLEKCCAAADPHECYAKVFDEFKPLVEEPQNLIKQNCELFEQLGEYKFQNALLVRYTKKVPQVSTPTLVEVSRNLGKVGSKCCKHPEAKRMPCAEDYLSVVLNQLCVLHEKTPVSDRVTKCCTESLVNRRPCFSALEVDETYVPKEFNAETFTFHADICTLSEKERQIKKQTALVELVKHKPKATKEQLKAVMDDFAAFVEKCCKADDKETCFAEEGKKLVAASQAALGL

Data set [4] in a line: Excitation and emission maxima of the dyes. The class given is physicochemical.

Molecules are shown by their SMILES.

T1 sequence (P02768 25-609): as above

Regarding `CN(C)c1ccc(/C=C/C(=O)c2ccc(S(=O)(=O)C(F)F)cc2)cc1` [K-37, 4-dimethylamino-4′-difluoromethyl-sulphonyl-benzylidene-acetophenone], the “Fluorescence Intensity” value in data set [1] (0.5 mM K-37 plus 50 mg/ml HSA) came to 79300 units; in data set [1] (0.5 mM K-37 plus 50 mg/ml HSA + 0.1 M sodium octanoate) it was 3600 units.

Regarding `CCN(CC)c1ccc2nc3c4ccccc4c(=O)cc-3oc2c1` [Nile Red], the “Fluorescence Intensity” value in data set [2] (0.5 mM Nile Red plus 50 mg/ml HSA) was determined as 58.905 units; in data set [2] (0.5 mM Nile Red plus 50 mg/ml HSA + 50 mM octanoate) it was 9.118 units.

`O=C(O)c1ccccc1` [benzoic acid]: the “quenching of the Nile Red residual fluorescence in solution” value in data set [3] is “about 20%”. The “displacement of Nile Red from HSA” value in data set [3] (at about 5 mM, without affecting the lipoprotein fluorescence) was “worked to displace the Nile Red from HSA”.

For the compound `c1cc2ccc3cccc4ccc(c1)c2c34` [pyrene], the excitation maximum in data set [4] was 320 nm.
